Key:
patients with PH [1] = assay: Clinical Study 2 in PH patients, 12 weeks, placebo controlled; type: in vivo, human
Experimental: In one embodiment of the invention, 3-(4-amino-1-oxo-1,3-dihydro-isoindol-2-yl)-piperidine-2,6-dione is administered in a single or divided daily doses in an amount of from about 1 to about 100 mg/day. In another embodiment of the invention, 3-(4-amino-1-oxo-1,3-dihydro-isoindol-2-yl)-piperidine-2,6-dione is administered from about 1 to about 20 mg/day individually. The compound is administered to patients with PH for 12 weeks, who are subsequently evaluated for a decline in walk distance, dyspnea score, functional class, pulmonary hemodynamic response. The first study enrolls 32 patients with PH. Patients are all in modified New York Heart Association functional class III at the onset of the study. Patents are maximally treated and are stable on conventional therapy, including calcium channel antagonists and diuretics. Two thirds of patients receive 5 mg of 3-(4-amino-1-oxo-1,3-dihydro-isoindol-2-yl)-piperidine-2,6-dione for four weeks followed by 10 mg of the compound for eight weeks. One third of patients receive placebo. The primary efficacy endpoint is a 6-minute walk distance. Patients receiving the compound of the invention walk an average of 70 meters farther after 12 weeks while placebo patients have a decline in walk distance. In addition, the treated patients have improvements in dyspnea score and functional class compared with placebo patients. Pulmonary hemodynamic measurements reveal decreases in pulmonary arterial pressure and pulmonary vascular resistance, and increase in cardiac output after 12 weeks of the treatment, compared with worsening of pulmonary hemodynamics in placebo patients. All these changes in treated patients are highly significant compared with placebo.

[2] = tested on: production of various cytokines; assay: In vitro pharmacological activity profile compared with thalidomide; type: cell-based; details: in vitro studies
Text: The pharmacological properties of 3-(4-amino-1 -oxo-1,3-dihydro-isoindol-2-yl)-piperidine-2,6-dione, including activity comparisons with thalidomide, have been characterized in in vitro studies. Studies examined the effects of 3-(4-amino-1-oxo-1,3-dihydro-isoindol-2-yl)-piperidine-2,6-dione or thalidomide on the production of various cytokines.
The pharmacological effects of 3-(4-amino-1-oxo-1,3-dihydro-isoindol-2-yl)-piperidine-2,6-dione derive from its action as an inhibitor of cellular response to receptor-initiated trophic signals (e.g., IGF-1, VEGF, […]), and other activities. As a result, 3-(4-amino-1-oxo-1,3-dihydro-isoindol-2-yl)-piperidine-2,6-dione suppresses the generation of inflammatory cytokines, down-regulates adhesion molecules and apoptosis inhibitory proteins (e.g., cFLIP, clAP), promotes sensitivity to death-receptor initiated programmed cell death, and suppresses angiogenic response.

patients with PH [3] = assay: Expanded clinical study in PH patients, WHO functional class III or IV, 16 weeks; type: in vivo, human
Experimental: On the basis of the results of the above study 2, the clinical study is expanded with additional 213 PH patients for at least 16 weeks. The study is conducted with patients with PH, WHO functional class III or IV. Two hundred thirteen patients are randomized to receive either 5 mg bid or 10 mg bid of 3-(4-amino-1-oxo-1,3-dihydro-isoindol-2-yl)-piperidine-2,6-dione or placebo in a 1:1:1 ratio. The primary endpoint, a 6-minute walk distance, is evaluated at 16 weeks. The treated patients walk 36.4 meters further at 16 weeks compared to a 7.8 meter reduction in walk distance in the placebo group, for a treatment effect of 44.2 meters. Clinical worsening, defined by death, premature withdrawal from study, hospitalization for worsening of PH or institution of epoprostenol, occur in 37% of placebo-treated patients, compared with 11% of the patients treated with the compound of the invention.

[4] = cited from earlier work

Compound | dyspnea score and functional class (patients with PH [1]; 12 weeks, compared with placebo patients) | cardiac output (patients with PH [1]; after 12 weeks of treatment) | pulmonary arterial pressure and pulmonary vascular resistance (patients with PH [1]; after 12 weeks of treatment) | 6-minute walk distance, average increase (patients with PH [1]; after 12 weeks, 5 mg for four weeks then 10 mg for eight weeks) | potency relative to thalidomide [2] | treatment effect on 6-minute walk distance versus placebo (patients with PH [3]; at 16 weeks) | 6-minute walk distance, increase (patients with PH [3]; at 16 weeks, 5 mg bid or 10 mg bid) | clinical worsening (death, premature withdrawal, hospitalization for worsening of PH or institution of epoprostenol), share of patients (patients with PH [3]; treated patients) | functional class (patients with PH [3]; treated versus placebo patients) | stability among forms in aqueous solvent systems [4]
Nc1cccc2c1CN(C1CCC(=O)NC1=O)C2=O (stereo not shown) [3-(4-amino-1-oxo-1,3-dihydro-isoindol-2-yl)-piperidine-2,6-dione] | improvements | increase | decreases | 70 meters | 50 to 2,000 times | 44.2 meters | 36.4 meters | 11% | improved significantly more | –
Nc1cccc2c1CN(C1CCC(=O)NC1=O)C2=O (stereo not shown) [Form E, 3-(4-amino-1-oxo-1,3 dihydro-isoindol-2-yl)-piperidene-2,6-dione] | – | – | – | – | – | – | – | – | – | most stable form
